Results reported in patent publication US5214063A, “4-aminobutyric acid compounds, compositions and methods of use for treating disorders related to a dysfunction of GABAB receptors” (Adir et Compagnie, priority 1990, dated 1993).

System: hippocampal preparations (CA3 pyramidal cells)
Experiment: Inhibition of excitation activity induced by convulsants (bicucullin) in hippocampal preparations
Type: cell-based
Conditions: 10 min; excitation induced by bicucullin (50 μM), compound perfused 10 minutes, adult female rat hippocampal preparations; read-out: inhibiting concentration 50 (IC50)
Experimental: Hippocampal preparations were prepared from the brains of sacrificed adult female rats. Transverse sections were placed in a preservative medium. After 1 hour and 30 minutes' incubation, the isolated preparations were placed under registration, perfused with a saline solution and oxygenated. Spontaneous potentials appear which are associated with CA3 pyramidal cells. Excitation is induced by the addition of bicucullin (50 μM).
The compounds of the invention, at various concentrations, or baclofen are then added.
The baclofen or the compounds of the invention are perfused for periods of 10 minutes. The excitation rate is calculated during the four minutes preceding the perfusion of baclofen or the compounds of the invention and during the last four minutes of the perfusion of the products to be studied.
The inhibition is expressed as percentage excitation in relation to the initial rate, which permits the determination of an inhibiting concentration 50 (IC50). The compounds of the invention have an IC50 of from 5 to 20 μM; baclofen in this test has an IC50 of approximately 50 μM.

`NCC(CC(=O)O)c1ccc(Cl)cc1` (stereo not shown) [baclofen, 4-amino-3-(4-chlorophenyl)butyric acid] showed an IC50 of about 50 µM.
